Results on six compounds are retold here after patent publication US9079974B2, “GH-RH analogs with potent agonistic effects” (The University of Miami, priority 2011, dated 2015).

Square brackets hold non-standard residues; d marks the D form. Peptide text beside a SMILES is read from it. * marks the point of attachment. Phe(F5) = N[C@@H](Cc1c(F)c(F)c(F)c(F)c1F)C(=O)O; Desaminotyrosyl = O=C(CCc1ccc(O)cc1)*; NMeY = CN[C@@H](Cc1ccc(O)cc1)C(=O)O; Agmatine = N=C(N)NCCCCN*; Nle = CCCC[C@H](N)C(=O)O; Orn = NCCC[C@H](N)C(=O)O; Abu = CC[C@H](N)C(=O)O; GABA = NCCCC(=O)O

This assay addresses T1, GHRH receptor (Homo sapiens, UniProt Q02643).
T1 construct: Normal human pituitaries were purchased from the National Hormone and Peptide Program; tissue National Hormone and Peptide Program (A. F. Parlow); host or cells: normal human pituitary, membrane fraction
T1 sequence (Q02643 23-423): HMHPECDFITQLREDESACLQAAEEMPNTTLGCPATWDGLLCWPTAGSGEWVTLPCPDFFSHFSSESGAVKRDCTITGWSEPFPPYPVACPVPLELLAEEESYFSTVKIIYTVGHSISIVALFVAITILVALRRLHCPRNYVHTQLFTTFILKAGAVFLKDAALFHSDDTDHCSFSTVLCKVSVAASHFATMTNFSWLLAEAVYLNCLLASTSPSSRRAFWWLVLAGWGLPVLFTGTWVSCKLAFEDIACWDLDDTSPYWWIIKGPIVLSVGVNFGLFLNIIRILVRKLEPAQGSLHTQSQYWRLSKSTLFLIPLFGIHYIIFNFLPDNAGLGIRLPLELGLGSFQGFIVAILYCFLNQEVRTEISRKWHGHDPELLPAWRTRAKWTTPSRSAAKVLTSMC
The assay can be described thus: GHRH receptor binding, 125I-labeled JV-1-42 ligand competition, human pituitary membrane homogenates (Table 7). The conditions noted are these: 125I-labeled JV-1-42, human pituitary membranes. As to the method: Preparation of human pituitary membrane fraction and receptor binding of GHRH agonists were performed as previously described, by using a sensitive in vitro ligand competition assay based on binding of ^125I-labeled JV-1-42 to human pituitary membrane homogenates. Normal human pituitaries were purchased from the National Hormone and Peptide Program (A. F. Parlow, Los Angeles, County Harbor-UCLA Medical Center, Torrance, Calif.).
Regarding `CCCC[C@H](NC(=O)[C@@H](NC(=O)[C@H](CC(=O)O)NC(=O)[C@H](CCC(N)=O)NC(=O)[C@H](CC(C)C)NC(=O)[C@H](CC(C)C)NC(=O)[C@H](CCCN)NC(=O)[C@H](CCCNC(=N)N)NC(=O)[C@H](C)NC(=O)[C@H](CO)NC(=O)[C@H](CC(C)C)NC(=O)[C@H](CCC(N)=O)NC(=O)[C@H](CC)NC(=O)[C@H](CC(C)C)NC(=O)[C@@H](NC(=O)[C@H](CCCN)NC(=O)[C@H](CCCNC(=N)N)NC(=O)[C@H](Cc1ccc(O)cc1)NC(=O)[C@H](CO)NC(=O)[C@H](CC(N)=O)NC(=O)[C@@H](NC(=O)[C@H](Cc1c(F)c(F)c(F)c(F)c1F)NC(=O)[C@@H](NC(=O)[C@H](C)NC(=O)[C@H](CC(=O)O)NC(=O)[C@@H](C)NC(=O)[C@H](Cc1ccc(O)cc1)NC)[C@@H](C)CC)[C@@H](C)O)C(C)C)[C@@H](C)CC)C(=O)N[C@@H](CC(=O)O)C(=O)NCCCCNC(=N)N` [Peptide P-20359, [N—Me-Tyr^1, D-Ala^2, Fpa5^6, Orn^12, Abu^15, Orn^21, Nle^27, Asp^28, Agm^29]hGH-RH(1-29)] (H-[NMeY][dA]DAI[Phe(F5)]TNSYR[Orn]VL[Abu]QLSAR[Orn]LLQDI[Nle]D-Agmatine), the IC50 (usually the point on the concentration scale where inhibition reaches its midpoint) stood at 3.05 nM.

Compound `CCCC[C@H](NC(=O)[C@@H](NC(=O)[C@H](CC(=O)O)NC(=O)[C@H](CCC(N)=O)NC(=O)[C@H](CC(C)C)NC(=O)[C@H](CC(C)C)NC(=O)[C@H](CCCN)NC(=O)[C@H](CCCNC(=N)N)NC(=O)[C@H](C)NC(=O)[C@H](CO)NC(=O)[C@H](CC(C)C)NC(=O)[C@H](CCC(N)=O)NC(=O)[C@H](CC)NC(=O)[C@H](CC(C)C)NC(=O)[C@@H](NC(=O)[C@H](CCCN)NC(=O)[C@H](CCCNC(=N)N)NC(=O)[C@H](Cc1ccc(O)cc1)NC(=O)[C@H](CO)NC(=O)[C@H](CCC(N)=O)NC(=O)[C@@H](NC(=O)[C@H](Cc1ccccc1)NC(=O)[C@@H](NC(=O)[C@H](C)NC(=O)[C@H](CC(=O)O)NC(=O)[C@@H](C)NC(=O)[C@H](Cc1ccc(O)cc1)NC)[C@@H](C)CC)[C@@H](C)O)C(C)C)[C@@H](C)CC)C(=O)N[C@@H](CC(=O)O)C(=O)NCCCCNC(=N)N` [Peptide P-20361, [N—Me-Tyr^1, D-Ala^2, Gln^8, Orn^12, Abu^15, Orn^21, Nle^27, Asp^28, Agm^29]hGH-RH(1-29)] (H-[NMeY][dA]DAIFTQSYR[Orn]VL[Abu]QLSAR[Orn]LLQDI[Nle]D-Agmatine) yielded an IC50 of 0.82 nM.

Consider `CCCC[C@H](NC(=O)[C@@H](NC(=O)[C@H](CC(=O)O)NC(=O)[C@H](CCC(N)=O)NC(=O)[C@H](CC(C)C)NC(=O)[C@H](CC(C)C)NC(=O)[C@H](CCCN)NC(=O)[C@H](CCCNC(=N)N)NC(=O)[C@H](C)NC(=O)[C@H](CO)NC(=O)[C@H](CC(C)C)NC(=O)[C@H](CCC(N)=O)NC(=O)[C@H](CC)NC(=O)[C@H](CC(C)C)NC(=O)[C@@H](NC(=O)[C@H](CCCN)NC(=O)[C@H](CCCNC(=N)N)NC(=O)[C@H](Cc1ccc(O)cc1)NC(=O)[C@H](CO)NC(=O)[C@H](CC(N)=O)NC(=O)[C@@H](NC(=O)[C@H](Cc1ccccc1)NC(=O)[C@@H](NC(=O)[C@H](C)NC(=O)[C@H](CC(=O)O)NC(=O)[C@@H](C)NC(=O)[C@H](Cc1ccc(O)cc1)NC)[C@@H](C)CC)[C@@H](C)O)C(C)C)[C@@H](C)CC)C(=O)N[C@@H](CC(=O)O)C(=O)NCCCCNC(=N)N` [Peptide P-20367, [N—Me-Tyr^1, D-Ala^2, Orn^12, Abu^15, Orn^21, Nle^27, Asp^28, Agm^29]hGH-RH(1-29)] (H-[NMeY][dA]DAIFTNSYR[Orn]VL[Abu]QLSAR[Orn]LLQDI[Nle]D-Agmatine), for which the IC50 worked out at 1.7 nM.

As for `CCCC[C@H](NC(=O)[C@@H](NC(=O)[C@H](CC(=O)O)NC(=O)[C@H](CCC(N)=O)NC(=O)[C@H](CC(C)C)NC(=O)[C@H](CC(C)C)NC(=O)[C@H](CCCN)NC(=O)[C@H](CCCNC(=N)N)NC(=O)[C@H](C)NC(=O)[C@H](CO)NC(=O)[C@H](CC(C)C)NC(=O)[C@H](CCC(N)=O)NC(=O)[C@H](CC)NC(=O)[C@H](CC(C)C)NC(=O)[C@@H](NC(=O)[C@H](CCCN)NC(=O)[C@H](CCCNC(=N)N)NC(=O)[C@H](Cc1ccc(O)cc1)NC(=O)[C@H](CO)NC(=O)[C@H](CCC(N)=O)NC(=O)[C@@H](NC(=O)[C@H](Cc1ccccc1)NC(=O)[C@@H](NC(=O)[C@H](C)NC(=O)[C@H](CC(=O)O)NC(=O)[C@@H](C)NC(=O)CCc1ccc(O)cc1)[C@@H](C)CC)[C@@H](C)O)C(C)C)[C@@H](C)CC)C(=O)N[C@@H](CC(=O)O)C(=O)N[C@H](CCCNC(=N)N)C(=O)NC` [Peptide P-27401, [Dat^1, D-Ala^2, Gln^8, Orn^12, Abu^15, Orn^21, Nle^27, Asp^28, D-Arg^29]hGH-RH(1-29)NH—CH3] (Desaminotyrosyl-[dA]DAIFTQSYR[Orn]VL[Abu]QLSAR[Orn]LLQDI[Nle]D[dR]-NHMe), the IC50 is 2.74 nM.

In the case of `CCCC[C@H](NC(=O)[C@@H](NC(=O)[C@H](CC(=O)O)NC(=O)[C@H](CCC(N)=O)NC(=O)[C@H](CC(C)C)NC(=O)[C@H](CC(C)C)NC(=O)[C@H](CCCN)NC(=O)[C@H](CCCNC(=N)N)NC(=O)[C@H](C)NC(=O)[C@H](CO)NC(=O)[C@H](CC(C)C)NC(=O)[C@H](CCC(N)=O)NC(=O)[C@H](CC)NC(=O)[C@H](CC(C)C)NC(=O)[C@@H](NC(=O)[C@H](CCCN)NC(=O)[C@H](CCCNC(=N)N)NC(=O)[C@H](Cc1ccc(O)cc1)NC(=O)[C@H](CO)NC(=O)[C@H](CC(N)=O)NC(=O)[C@@H](NC(=O)[C@H](Cc1c(F)c(F)c(F)c(F)c1F)NC(=O)[C@@H](NC(=O)[C@H](C)NC(=O)[C@H](CC(=O)O)NC(=O)[C@@H](C)NC(=O)[C@H](Cc1ccc(O)cc1)NC)[C@@H](C)CC)[C@@H](C)O)C(C)C)[C@@H](C)CC)C(=O)N[C@@H](CO)C(=O)N[C@@H](CCCNC(=N)N)C(=O)NCCCC(=O)NC` [Peptide P-27414, [N—Me-Tyr^1, D-Ala^2, Fpa5^6, Orn^12, Abu^15, Orn^21, Nle^27, Gab^30]hGH-RH(1-30)NH—CH3] (H-[NMeY][dA]DAI[Phe(F5)]TNSYR[Orn]VL[Abu]QLSAR[Orn]LLQDI[Nle]SR[GABA]-NHMe), the half-inhibitory concentration (IC50) was 1.56 nM.

Turning to `CCCC[C@H](NC(=O)[C@@H](NC(=O)[C@H](CC(=O)O)NC(=O)[C@H](CCC(N)=O)NC(=O)[C@H](CC(C)C)NC(=O)[C@H](CC(C)C)NC(=O)[C@H](CCCN)NC(=O)[C@H](CCCNC(=N)N)NC(=O)[C@H](C)NC(=O)[C@H](CO)NC(=O)[C@H](CC(C)C)NC(=O)[C@H](CCC(N)=O)NC(=O)[C@H](CC)NC(=O)[C@H](CC(C)C)NC(=O)[C@@H](NC(=O)[C@H](CCCN)NC(=O)[C@H](CCCNC(=N)N)NC(=O)[C@H](Cc1ccc(O)cc1)NC(=O)[C@H](CO)NC(=O)[C@H](CCC(N)=O)NC(=O)[C@@H](NC(=O)[C@H](Cc1ccccc1)NC(=O)[C@@H](NC(=O)[C@H](C)NC(=O)[C@H](CC(=O)O)NC(=O)[C@@H](C)NC(=O)[C@H](Cc1ccc(O)cc1)NC)[C@@H](C)CC)[C@@H](C)O)C(C)C)[C@@H](C)CC)C(=O)N[C@@H](CC(=O)O)C(=O)N[C@@H](CCCNC(=N)N)C(=O)NCC` [Peptide P-28420, [N—Me-Tyr^1, D-Ala^2, Gln^8, Orn^12, Abu^15, Orn^21, Nle^27, Asp^28]hGH-RH(1-29)NH—CH2—CH3] (H-[NMeY][dA]DAIFTQSYR[Orn]VL[Abu]QLSAR[Orn]LLQDI[Nle]DR-NHEt), the IC50 was determined as 0.52 nM.
